Source: article PMC8878047 (Pharmaceutics, 2022)
Where two headings read alike, the source gives them in different places.

What was measured:
[1] = Method: All tests were conducted in the animal experimental center of Guangxi Medical University. Preliminary experiments were needed before starting official tests. […] Groups of mice (n = 10 per group, half male and half female) received different doses of the tested compounds by gavage at the same single dose of drug solution, which was uniformed to be […] (drug solution)/10 g, but containing different concentration of tested drugs. […] We compared these mice with the control group in which the mice were not given drugs, according to the pre-experimental procedure. We closely observed the mice for 6 h after the gavage for signs of toxicity and mortality. As soon as death occurred among the maximum-dose group, we conducted an autopsy and took samples from the main organs for histopathological examination. In addition, we monitored all of the tested mice for 2 weeks to record their weight and mortality.
[2] = test system: wild type AB strain zebrafish; conditions: 30 embryos per well
Method: Zebrafish were incubated and grown in the Joint Laboratory established by Shandong Rui’ying Pharmaceutical Group (Heze, China) and China Pharmaceutical University. Both the Wild-type AB (Danio rerio) and Tg(mpx:eGFP) zebrafish strains were maintained under the guidance of the standard procedures of The Zebrafish Book. […] Then the zebrafish were allowed to naturally mate and spawn the next morning. The normally born embryos were then collected after 1 h and kept in an incubating system at 28 °C. The 6 hpf (hour post fertilization) embryos were transferred into a 6-well plate exposed to 5 mL of egg water, in which 30 embryos were in each well.

[3] = 0.01 μM medicated bath, 120 hpf

For `CCN1CCN(c2cc3c(cc2F)c(=O)c(C(=O)[O-])cn3C2CC2)CC1.CCN1CCN(c2cc3c(cc2F)c(=O)c(C(=O)[O-])cn3C2CC2)CC1.O.O.O.O.[Ca+2]` [EFX-Ca, [Ca(EFX)2(H2O)4]·H2O], the “Body Weight (g, x¯ ± SD)” value ([1]; 2000 mg/kg single gavage, Day-0) was 17.51 ± 1.14 g, the “Body Weight (g, x¯ ± SD)” value ([1]; 2000 mg/kg single gavage, Day-1) was 19.77 ± 1.22 g and the “Body Weight (g, x¯ ± SD)” value ([1]; 2000 mg/kg single gavage, Day-4) was 25.91 ± 1.83 g. The “Body Weight (g, x¯ ± SD)” value ([1]; 2000 mg/kg single gavage, Day-7) was 29.78 ± 3.46 g, the “Body Weight (g, x¯ ± SD)” value ([1]; 2000 mg/kg single gavage, Day-14) was 33.33 ± 5.64 g and the “Body Weight (g, x¯ ± SD)” value ([1]; 3031 mg/kg single gavage, Day-0) was 18.32 ± 0.94 g. For the same compound, the “Body Weight (g, x¯ ± SD)” value ([1]; 3031 mg/kg single gavage, Day-1) was 19.61 ± 1.23 g, the “Body Weight (g, x¯ ± SD)” value ([1]; 3031 mg/kg single gavage, Day-4) was 25.70 ± 1.24 g and the “Body Weight (g, x¯ ± SD)” value ([1]; 3031 mg/kg single gavage, Day-7) was 28.44 ± 2.14 g. For the same compound, the “Body Weight (g, x¯ ± SD)” value ([1]; 3031 mg/kg single gavage, Day-14) was 33.91 ± 5.25 g, the “Body Weight (g, x¯ ± SD)” value ([1]; 4595 mg/kg single gavage, Day-0) was 17.31 ± 1.05 g and the “Body Weight (g, x¯ ± SD)” value ([1]; 4595 mg/kg single gavage, Day-1) was 17.09 ± 1.56 g. The “Body Weight (g, x¯ ± SD)” value ([1]; 4595 mg/kg single gavage, Day-4) was 20.10 ± 5.55 g, the “Body Weight (g, x¯ ± SD)” value ([1]; 4595 mg/kg single gavage, Day-7) was 26.43 ± 5.34 g and the “Body Weight (g, x¯ ± SD)” value ([1]; 4595 mg/kg single gavage, Day-14) was 33.60 ± 7.07 g. The “Body Weight (g, x¯ ± SD)” value ([1]; 6964 mg/kg single gavage, Day-0) was 17.68 ± 0.88 g, the “Body Weight (g, x¯ ± SD)” value ([1]; 6964 mg/kg single gavage, Day-1) was 17.21 ± 1.22 g and the “Body Weight (g, x¯ ± SD)” value ([1]; 6964 mg/kg single gavage, Day-4) was 16.89 ± 5.13 g. The “Body Weight (g, x¯ ± SD)” value ([1]; 6964 mg/kg single gavage, Day-7) was 23.11 ± 4.21 g, the “Body Weight (g, x¯ ± SD)” value ([1]; 6964 mg/kg single gavage, Day-14) was 29.30 ± 5.26 g and the “Body Weight (g, x¯ ± SD)” value ([1]; 10,556 mg/kg single gavage, Day-0) was 17.67 ± 0.72 g. The “Body Weight (g, x¯ ± SD)” value ([1]; 10,556 mg/kg single gavage, Day-1) was 17.00 ± 0.30 g, the “Body Weight (g, x¯ ± SD)” value ([1]; 10,556 mg/kg single gavage, Day-4) was 21.53 ± 2.10 g and the “Body Weight (g, x¯ ± SD)” value ([1]; 10,556 mg/kg single gavage, Day-7) was 26.47 ± 3.50 g. The “Body Weight (g, x¯ ± SD)” value ([1]; 10,556 mg/kg single gavage, Day-14) was 34.00 ± 7.50 g, the “Body Weight (g, x¯ ± SD)” value ([1]; 16,000 mg/kg single gavage, Day-0) was 17.84 ± 1.23 g and the “Body Weight (g, x¯ ± SD)” value ([1]; 16,000 mg/kg single gavage, Day-1) was 17.43 ± 1.95 g. For the same compound, the “Body Weight (g, x¯ ± SD)” value ([1]; 16,000 mg/kg single gavage, Day-4) was 23.55 ± 2.66 g, the “Body Weight (g, x¯ ± SD)” value ([1]; 16,000 mg/kg single gavage, Day-7) was 29.15 ± 2.66 g and the “Body Weight (g, x¯ ± SD)” value ([1]; 16,000 mg/kg single gavage, Day-14) was 37.25 ± 4.57 g. The “statistical death of the tested zebrafish” value (shortened to “statistical death”) ([2]; 0.01 μM medicated bath, 24 hpf) was 6, the “statistical survival of the tested zebrafish” value (shortened to “statistical survival”) ([2]; 0.01 μM medicated bath, 24 hpf) was 24 and the “statistical death” value ([2]; 0.01 μM medicated bath, 48 hpf) was 6. The “statistical survival” value ([2]; 0.01 μM medicated bath, 48 hpf) was 24, the “statistical death” value ([2]; 0.01 μM medicated bath, 72 hpf) was 6 and the “statistical survival” value ([2]; 0.01 μM medicated bath, 72 hpf) was 24. The “statistical death” value ([2]; 0.01 μM medicated bath, 96 hpf) was 8, the “statistical survival” value ([2]; 0.01 μM medicated bath, 96 hpf) was 22 and the “statistical death” value [2, 3] was 8. The “statistical survival” value [2, 3] was 22, the “statistical death” value ([2]; 0.1 μM medicated bath, 24 hpf) was 4 and the “statistical survival” value ([2]; 0.1 μM medicated bath, 24 hpf) was 26. The “statistical death” value ([2]; 0.1 μM medicated bath, 48 hpf) was 4, the “statistical survival” value ([2]; 0.1 μM medicated bath, 48 hpf) was 26 and the “statistical death” value ([2]; 0.1 μM medicated bath, 72 hpf) was 4. For the same compound, the “statistical survival” value ([2]; 0.1 μM medicated bath, 72 hpf) was 26, the “statistical death” value ([2]; 0.1 μM medicated bath, 96 hpf) was 4 and the “statistical survival” value ([2]; 0.1 μM medicated bath, 96 hpf) was 26. The “statistical death” value ([2]; 0.1 μM medicated bath, 120 hpf) was 4, the “statistical survival” value ([2]; 0.1 μM medicated bath, 120 hpf) was 26 and the “statistical death” value ([2]; 1 μM medicated bath, 24 hpf) was 2. For the same compound, the “statistical survival” value ([2]; 1 μM medicated bath, 24 hpf) was 28, the “statistical death” value ([2]; 1 μM medicated bath, 48 hpf) was 2 and the “statistical survival” value ([2]; 1 μM medicated bath, 48 hpf) was 28. For the same compound, the “statistical death” value ([2]; 1 μM medicated bath, 72 hpf) was 2, the “statistical survival” value ([2]; 1 μM medicated bath, 72 hpf) was 28 and the “statistical death” value ([2]; 1 μM medicated bath, 96 hpf) was 2. For the same compound, the “statistical survival” value ([2]; 1 μM medicated bath, 96 hpf) was 28, the “statistical death” value ([2]; 1 μM medicated bath, 120 hpf) was 2 and the “statistical survival” value ([2]; 1 μM medicated bath, 120 hpf) was 28. For the same compound, the “statistical death” value ([2]; 10 μM medicated bath, 24 hpf) was 4, the “statistical survival” value ([2]; 10 μM medicated bath, 24 hpf) was 26 and the “statistical death” value ([2]; 10 μM medicated bath, 48 hpf) was 4. The “statistical survival” value ([2]; 10 μM medicated bath, 48 hpf) was 26, the “statistical death” value ([2]; 10 μM medicated bath, 72 hpf) was 4 and the “statistical survival” value ([2]; 10 μM medicated bath, 72 hpf) was 26. For the same compound, the “statistical death” value ([2]; 10 μM medicated bath, 96 hpf) was 4.
